Laboratory results from patent US20090098097A1, “COMPOSITION FOR NORMALIZING BLOOD PRESSURE” (KANEKA CORPORATION, priority 2006, published 2009).

How the values were obtained:
[1] = system: healthy male and female volunteers; experiment: Evaluation of blood pressure normalization by reduced coenzyme Q10 in healthy subjects; assay type: in vivo, human; conditions: for systolic blood pressure / diastolic blood pressure relative to before ingestion (100): 4 weeks after ingestion; for systolic blood pressure: before breakfast; for change in blood pressure after ingestion as compared to before ingestion (in words): 150 mg per day for 4 weeks
Procedure: Healthy male and female volunteers (20 subjects) ingested 5 soft capsules (total 150 mg) per day each containing 30 mg of reduced coenzyme Q10 (containing about 2% of oxidized coenzyme Q10), and the blood pressure before breakfast was measured before and after ingestion for 4 weeks. After the measurement, the subjects were divided into three groups of hypotension group (n=8, not more than 110 mmHg), normal blood pressure group (n=8, 110-130 mmHg) and mild hypertension group (n=4, 130-150 mmHg), according to the systolic blood pressure before ingestion, and analyzed.

[2] = system: healthy male volunteers; experiment: Evaluation of blood pressure normalization by oxidized coenzyme Q10 in healthy subjects; assay type: in vivo, human; conditions: for systolic blood pressure / diastolic blood pressure relative to before ingestion (100): 4 weeks after ingestion; for systolic blood pressure: before breakfast
Procedure: Healthy male volunteers (22 subjects) ingested soft capsule preparation containing oxidized coenzyme Q10 (150 mg) by 6 capsules (total 900 mg) per day, and the blood pressure before breakfast was measured before and after ingestion for 4 weeks. After the measurement, the subjects were divided into three groups of hypotension group (n=6, not more than 110 mmHg), normal blood pressure group (n=8, 110-130 mmHg) and mild hypertension group (n=8, 130-150 mmHg), according to the systolic blood pressure before ingestion, and analyzed. […] Consequently, a hypotension improving effect of oxidized coenzyme Q10 in healthy human subjects has been clarified.

Structure (SMILES) | systolic blood pressure ([1]; hypotension group (n=8, not more than 110 mmHg), 150 mg per day soft capsules, before ingestion 99.6 ± 4.9) | change in blood pressure after ingestion as compared to before ingestion (in words) ([1]; hypotension group) | diastolic blood pressure relative to before ingestion (100) ([1]; hypotension group, 150 mg per day, **p < 0.01 U-test) | systolic blood pressure ([1]; mild hypertension group (n=4, 130-150 mmHg), 150 mg per day, before ingestion 140.5 ± 9.2) | change in blood pressure after ingestion as compared to before ingestion (in words) ([1]; mild hypertension group) | diastolic blood pressure relative to before ingestion (100) ([1]; mild hypertension group, 150 mg per day, *p < 0.05 U-test) | systolic blood pressure ([1]; normal blood pressure group (n=8, 110-130 mmHg), 150 mg per day, before ingestion 125.3 ± 3.1) | change in blood pressure after ingestion as compared to before ingestion (in words) ([1]; normal blood pressure group) | diastolic blood pressure relative to before ingestion (100) ([1]; normal blood pressure group, 150 mg per day) | systolic blood pressure ([2]; hypotension group (n=6, not more than 110 mmHg), 900 mg per day soft capsules, before ingestion 105.5 ± 4.4) | diastolic blood pressure relative to before ingestion (100) ([2]; hypotension group, 900 mg per day, **p < 0.01 U-test) | systolic blood pressure ([2]; mild hypertension group (n=8, 130-150 mmHg), 900 mg per day, before ingestion 135.8 ± 4.6) | diastolic blood pressure relative to before ingestion (100) ([2]; mild hypertension group, 900 mg per day) | systolic blood pressure ([2]; normal blood pressure group (n=8, 110-130 mmHg), 900 mg per day, before ingestion 126.1 ± 2.7) | change in blood pressure after ingestion as compared to before ingestion (in words) ([2]; normal blood pressure group, 900 mg per day for 4 weeks) | diastolic blood pressure relative to before ingestion (100) ([2]; normal blood pressure group, 900 mg per day)
COc1c(O)c(C)c(C/C=C(\C)CC/C=C(\C)CC/C=C(\C)CC/C=C(\C)CC/C=C(\C)CC/C=C(\C)CC/C=C(\C)CC/C=C(\C)CC/C=C(\C)CCC=C(C)C)c(O)c1OC [reduced coenzyme Q10] | 117.5 ± 6.2 mmHg | significant increase in the blood pressure | (118**) | 125.1 ± 6.1 mmHg | significant decrease in the blood pressure | (89*) | 125.5 ± 9.1 mmHg | did not show significant variations | (100) |  |  |  |  |  |  | 
COC1=C(OC)C(=O)C(C/C=C(\C)CC/C=C(\C)CC/C=C(\C)CC/C=C(\C)CC/C=C(\C)CC/C=C(\C)CC/C=C(\C)CC/C=C(\C)CC/C=C(\C)CCC=C(C)C)=C(C)C1=O [oxidized coenzyme Q10] |  |  |  |  |  |  |  |  |  | 126.5 ± 2.9 mmHg | (120**) | 134.8 ± 9.4 mmHg | (100) | 127.6 ± 7.7 mmHg | did not show significant variations | (101)
